Results taken from patent US8835124B2, “Method for treating cancer with agents that bind phosphorylated CDC27” (The Nemours Foundation, priority 2011, dated 2014).

Legend:
[1] = biological target: T1, Cdc27 association with p55Cdc20, APC2, APC8 (Homo sapiens, UniProt P30260); assay: Co-immunoprecipitation with anti-Cdc27 antibodies; format: cell-based; settings: DAOY, curcumin for 8 hours
T1 construct: endogenous in cells
Procedure: For immunoprecipitation, cells were lysed at 4° C. for 30 min in a buffer of 50 mM HEPES, pH 7.4, 150 mM NaCl 0.5% NP-40, 1 mM EDTA, 1 mM Na3VO4, 1 mM aprotinin, 1 mM leupeptin and 1 mM PMSF. Equal amounts of protein (from 0.5 to 2 mg) were incubated with Cdc27 antibody for 4 hours at 4° C. followed by protein G-Sepharose (GE Healthcare) for 2 hours, washed extensively, and analyzed by immunoblotting with indicated antibodies. For λ-phosphatase treatment, Cdc27 was immunoprecipitated as above except that phosphatase and protease inhibitors were omitted and then incubated with λ-[…]phosphatase according to the manufacturer's protocol (New England Biolabs, Ipswich, Mass.).
Proper APC/C function requires co-activator proteins such as Cdc20 or Cdh1 that may facilitate the recruitment of substrates. […] Cell lysates were subjected to immunoprecipitation with anti-Cdc27 antibodies. Immunoprecipitated proteins were immunoblotted with antibodies to APC2, APC8, p55 Cdc20 or Cdh1. Immunoblots of total cell lysates are shown to ensure equal loading. […] Under the experimental conditions used, Cdh1 was not found to be associating with Cdc27 (FIG. 8C).

APC/C = biological target: T2, APC/C (Homo sapiens, UniProt P30260); assay: In vitro APC assay (ubiquitin ligase activity on cyclin B); format: biochemical; settings: DAOY released from G2/M block with 20 μM or 40 μM curcumin; two hours vs one hour of release
T2 construct: Cell pellets of control and curcumin-treated DAOY cells were snap frozen in liquid nitrogen; endogenous in cells; host or cells: DAOY cell lysate, 30 μg total protein
Procedure: In vitro APC assays were performed as described (Rajasekaran et al., Molecular Cancer Therapeutics 7(7); 2142-2151 (2008) using an in vitro transcribed and translated N-terminal fragment of cyclin B1 (cyclin B1-N1-102) as substrate, ^35S-methionine labeled cyclin B1-N1-102 was obtained using the TNT quick-coupled Transcription/Translation system (Promega, Madison, Wis.). Cell pellets of control and curcumin-treated DAOY cells were snap frozen in liquid nitrogen. The cell pellets were resuspended in an ice-cold hypotonic buffer (20 mM Hepes pH 7.6, 20 mM NaF, 1.5 mM MgCl2, 1 mM DTT, 5 mM KCl, 20 mM β-glycerophosphate, 250 μM NaVO3, 1 mM PMSF, and EDTA-free protease inhibitors) and incubated for 30 minutes on ice. The lysates were briefly homogenized and cleared by a 1 hour centrifugation at 13,000 rpm in a micro centrifuge. For the assay, 30 μg of total protein were added to reaction buffer containing 20 mM Tris pH 7.5, 20 mM NaCl, 5 mM MgCl2, 5 mM ATP-γ-S, 20 μg/ml MG-132, 0.5 μg UbcH10, 20 μM ubiquitin, 1 μm ubiquitin aldehyde, protease inhibitor, and 2 μl of in vitro translated ^35S-cyclin B1-N1-102 and incubated at 37° C. for 60 minutes. The reactions were stopped by adding sample buffer and proteins were separated by SDS-PAGE on a 4-15% gradient gel. To visualize the bands, the gel was incubated and enhanced with salicylate, dried, and then subjected to autoradiography. […]

medulloblastoma = medulloblastoma in vivo model; cited from earlier work
[2] = tested on: DAOY medulloblastoma cells; assay: Cell cycle analysis by flow cytometry after release from thymidine/nocodazole mitotic block; format: cell-based, human; settings: for cells remained in G2/M: 10 μM curcumin; for G0/G1 / G2/M / S / Sub G0/G1: DAOY released from thymidine/nocodazole block
Procedure: DNA was stained with 100 μg/ml propidium iodide (PI) in hypotonic citrate buffer with 20 μg/ml ribonuclease A. Stained nuclei were analyzed for DNA-PI fluorescence using an Accuri C6 flow cytometer (Accuri Cytometers Inc., Ann Arbor, Mich.). Resulting DNA distributions for sub G0/G1, G0/G1, S and G2/M phase of the cell cycle were analyzed with CFlow plus software (Accuri Cytometers Inc).
For analysis of cell cycle profiles after mitotic block, cells were synchronized with 2 mM thymidine for 24 hours. The block was released for 3 hours and cells were arrested in prometaphase with 100 nM nocodazole for 12 hours. For G1/S arrest, cells were synchronized for 18 hours with 2 mM thymidine, released for 9 hours, followed by a second thymidine arrest for 18 hours. The block was then released in the presence of DMSO or curcumin as indicated and the cells were processed as described above.
For analysis of cell cycle profiles after mitotic block, cells were synchronized with 2 mM thymidine for 24 hours. The block was released for 3 hours and cells were arrested in prometaphase with 100 nM nocodazole for 12 hours. For G1/S arrest, cells were synchronized for 18 hours with 2 mM thymidine, released for 9 hours, followed by a second thymidine arrest for 18 hours. The block was then released in the presence of DMSO or curcumin as indicated and the cells were processed as described above. […] The data from these cell cycle studies are the mean±SEM of three independent experiments. […]

SMILES: COc1cc(/C=C/C(=O)CC(=O)/C=C/c2ccc(O)c(OC)c2)ccc1O [Curcumin, (E,E)-1,7-bis(4-hydroxy-3-methoxyphenyl)-1,6-heptadiene-3,5-dion]
- Cdc27 association with the APC/C subunits APC2 and APC8 [1]: not affected
- p55Cdc20 association with Cdc27 ([1]; compared to control cells): dramatically reduced
- APC activity (APC/C): reduced
- medulloblastoma growth (medulloblastoma): can inhibit medulloblastoma growth
- cells remained in G2/M ([2]; six hours after release from mitotic block): 47.7%
- cells remained in G2/M ([2]; two hours after release from mitotic block): 91.5%
- cells found in G2/M ([2]; 20 μM curcumin, 10 hours of release from mitotic block): 69.8%
- cells in the sub-G0/G1 fraction ([2]; 20 μM curcumin, after release from mitotic block): a significant amount of cells was in the sub-G0/G1 fraction
- G0/G1 ([2]; 10 μM Curcumin, 0 Hr): 7.38 ± 3.12%
- G2/M ([2]; 10 μM Curcumin, 0 Hr): 70.15 ± 0.75%
- S ([2]; 10 μM Curcumin, 0 Hr): 17.68 ± 4.78%
- Sub G0/G1 ([2]; 10 μM Curcumin, 0 Hr): 4.80 ± 2.40%
- G0/G1 ([2]; 10 μM Curcumin, 2 Hr): 16.87 ± 4.87%
- G2/M ([2]; 10 μM Curcumin, 2 Hr): 64.16 ± 7.74%
- S ([2]; 10 μM Curcumin, 2 Hr): 10.76 ± 0.04%
- Sub G0/G1 ([2]; 10 μM Curcumin, 2 Hr): 8.21 ± 2.91%
- G0/G1 ([2]; 10 μM Curcumin, 4 Hr): 35.54 ± 1.94%
- G2/M ([2]; 10 μM Curcumin, 4 Hr): 46.47 ± 0.17%
- S ([2]; 10 μM Curcumin, 4 Hr): 9.47 ± 2.03%
- Sub G0/G1 ([2]; 10 μM Curcumin, 4 Hr): 8.57 ± 0.13%
- G0/G1 ([2]; 10 μM Curcumin, 6 Hr): 43.93 ± 3.13%
- G2/M ([2]; 10 μM Curcumin, 6 Hr): 33.43 ± 5.27%
- S ([2]; 10 μM Curcumin, 6 Hr): 12.07 ± 0.53%
- Sub G0/G1 ([2]; 10 μM Curcumin, 6 Hr): 10.57 ± 2.67%
- G0/G1 ([2]; 10 μM Curcumin, 8 Hr): 47.60 ± 4.00%
- G2/M ([2]; 10 μM Curcumin, 8 Hr): 26.86 ± 6.24%
- S ([2]; 10 μM Curcumin, 8 Hr): 15.54 ± 0.56%
- Sub G0/G1 ([2]; 10 μM Curcumin, 8 Hr): 9.99 ± 2.79%
- G0/G1 ([2]; 10 μM Curcumin, 10 Hr): 48.68 ± 8.18%
- G2/M ([2]; 10 μM Curcumin, 10 Hr): 22.65 ± 11.35%
- S ([2]; 10 μM Curcumin, 10 Hr): 19.88 ± 0.32%
- Sub G0/G1 ([2]; 10 μM Curcumin, 10 Hr): 8.85 ± 3.45%
- G0/G1 ([2]; 20 μM Curcumin, 0 Hr): 7.38 ± 3.12%
- G2/M ([2]; 20 μM Curcumin, 0 Hr): 70.15 ± 0.75%
- S ([2]; 20 μM Curcumin, 0 Hr): 17.68 ± 4.76%
- Sub G0/G1 ([2]; 20 μM Curcumin, 0 Hr): 4.80 ± 2.40%
- G0/G1 ([2]; 20 μM Curcumin, 2 Hr): 11.51 ± 2.81%
- G2/M ([2]; 20 μM Curcumin, 2 Hr): 67.21 ± 5.39%
- S ([2]; 20 μM Curcumin, 2 Hr): 13.86 ± 0.34%
- Sub G0/G1 ([2]; 20 μM Curcumin, 2 Hr): 7.42 ± 2.92%
- G0/G1 ([2]; 20 μM Curcumin, 4 Hr): 16.77 ± 1.63%
- G2/M ([2]; 20 μM Curcumin, 4 Hr): 65.00 ± 1.30%
- S ([2]; 20 μM Curcumin, 4 Hr): 10.77 ± 1.57%
- Sub G0/G1 ([2]; 20 μM Curcumin, 4 Hr): 7.46 ± 1.36%
- G0/G1 ([2]; 20 μM Curcumin, 6 Hr): 22.09 ± 0.81%
- G2/M ([2]; 20 μM Curcumin, 6 Hr): 52.27 ± 5.63%
- S ([2]; 20 μM Curcumin, 6 Hr): 14.02 ± 2.02%
- Sub G0/G1 ([2]; 20 μM Curcumin, 6 Hr): 11.67 ± 4.37%
- G0/G1 ([2]; 20 μM Curcumin, 8 Hr): 24.20 ± 0.30%
- G2/M ([2]; 20 μM Curcumin, 8 Hr): 51.55 ± 9.55%
- S ([2]; 20 μM Curcumin, 8 Hr): 13.45 ± 3.65%
- Sub G0/G1 ([2]; 20 μM Curcumin, 8 Hr): 10.85 ± 5.55%
- G0/G1 ([2]; 20 μM Curcumin, 10 Hr): 25.15 ± 0.85%
- G2/M ([2]; 20 μM Curcumin, 10 Hr): 48.95 ± 10.95%
- S ([2]; 20 μM Curcumin, 10 Hr): 14.22 ± 4.02%
- Sub G0/G1 ([2]; 20 μM Curcumin, 10 Hr): 11.67 ± 6.07%
